Converted amounts (≈) assume the structure as drawn. The source made the active and inactive calls. The calls are words filed in the database; no cut-off is given here.
Tests used:
Staphylococcus aureus [1] = experiment: Bactericidal activity against high level levofloxacin and methicillin-resistant Staphylococcus aureus at 16 times MIC after 24 hrs by time-kill assay; type: functional, organism-based
Staphylococcus aureus [2] = experiment: Bactericidal activity against low level levofloxacin and methicillin-resistant Staphylococcus aureus at 16 times MIC after 120 mins by time-kill assay; type: functional, organism-based
Staphylococcus aureus [3] = experiment: Bactericidal activity against levofloxacin-sensitive and methicillin-resistant Staphylococcus aureus at 16 times MIC after 24 hrs by time-kill assay; type: functional, organism-based
Staphylococcus aureus [4] = experiment: Antimicrobial activity against high level levofloxacin and methicillin-resistant Staphylococcus aureus JCSC 6763 expressing gyrA Ser84Leu/Ser85Pro and grlA Ser80Phe/Glu84Lys mutants by broth microdilution method; type: functional
Staphylococcus aureus [5] = experiment: Bactericidal activity against low level levofloxacin and methicillin-resistant Staphylococcus aureus at 8 times MIC after 120 mins by time-kill assay; type: functional, organism-based
Staphylococcus aureus [6] = experiment: Bactericidal activity against levofloxacin-sensitive and methicillin-resistant Staphylococcus aureus at 4 times MIC after 24 hrs by time-kill assay; type: functional, organism-based
Staphylococcus aureus [7] = experiment: Antimicrobial activity against levofloxacin-sensitive and methicillin-resistant Staphylococcus aureus JCSC 6769 by broth microdilution method; type: functional
Staphylococcus aureus [8] = experiment: Bactericidal activity against levofloxacin-sensitive and methicillin-resistant Staphylococcus aureus at 8 times MIC after 24 hrs by time-kill assay; type: functional, organism-based
Staphylococcus aureus [9] = experiment: Bactericidal activity against low level levofloxacin and methicillin-resistant Staphylococcus aureus at 16 times MIC after 24 hrs by time-kill assay; type: functional, organism-based
Staphylococcus aureus [10] = experiment: Bactericidal activity against levofloxacin-sensitive and methicillin-resistant Staphylococcus aureus at 2048 ug/ml after 24 hrs by time-kill assay; type: functional, organism-based
Staphylococcus aureus [11] = experiment: Bactericidal activity against high level levofloxacin and methicillin-resistant Staphylococcus aureus at 4 times MIC after 24 hrs by time-kill assay; type: functional, organism-based
Staphylococcus aureus [12] = experiment: Bactericidal activity against high level levofloxacin and methicillin-resistant Staphylococcus aureus at 2048 ug/ml after 24 hrs by time-kill assay; type: functional, organism-based
Staphylococcus aureus [13] = experiment: Bactericidal activity against low level levofloxacin and methicillin-resistant Staphylococcus aureus at 2048 ug/ml after 24 hrs by time-kill assay; type: functional, organism-based
Staphylococcus aureus [14] = experiment: Antimicrobial activity against low level levofloxacin and methicillin-resistant Staphylococcus aureus JCSC 6767 expressing gyrA Glu84Lys and grlA Ser80Phe mutants by broth microdilution method; type: functional
Staphylococcus aureus [15] = experiment: Antimicrobial activity against levofloxacin-sensitive and methicillin-resistant Staphylococcus aureus JCSC 6770 by broth microdilution method; type: functional
Staphylococcus aureus [16] = experiment: Bactericidal activity against low level levofloxacin and methicillin-resistant Staphylococcus aureus at 8 times MIC after 24 hrs by time-kill assay; type: functional, organism-based
Staphylococcus aureus [17] = experiment: Bactericidal activity against high level levofloxacin and methicillin-resistant Staphylococcus aureus at 8 times MIC after 24 hrs by time-kill assay; type: functional, organism-based
Staphylococcus aureus [18] = experiment: Antimicrobial activity against levofloxacin-sensitive and methicillin-resistant Staphylococcus aureus JCSC 6822 harboring mutation in norA gene by broth microdilution method; type: functional
Staphylococcus aureus [19] = experiment: Bactericidal activity against methicillin-resistant Staphylococcus aureus at 4 times MIC upto 60 mins by time-kill assay; type: functional, organism-based
Staphylococcus aureus [20] = experiment: Bactericidal activity against low level levofloxacin and methicillin-resistant Staphylococcus aureus at 4 times MIC after 120 mins by time-kill assay; type: functional, organism-based
Staphylococcus aureus [21] = experiment: Antimicrobial activity against high level levofloxacin and methicillin-resistant Staphylococcus aureus JCSC 6764 expressing gyrA Ser84Leu, gyrB Asp437Glu norA T389C and grlA Ser80Phe/Glu84Lys mutants by broth microdilution method; type: functional
Staphylococcus aureus [22] = experiment: Bactericidal activity against methicillin-resistant Staphylococcus aureus at 8 times MIC upto 60 mins by time-kill assay; type: functional, organism-based
Staphylococcus aureus [23] = experiment: Antimicrobial activity against low level levofloxacin and methicillin-resistant Staphylococcus aureus JCSC 6766 expressing gyrA Glu84Lys and grlA Ser80Phe mutants by broth microdilution method; type: functional
Staphylococcus aureus [24] = experiment: Bactericidal activity against low level levofloxacin and methicillin-resistant Staphylococcus aureus at 4 times MIC after 24 hrs by time-kill assay; type: functional, organism-based
Staphylococcus aureus [25] = experiment: Antimicrobial activity against high level levofloxacin and methicillin-resistant Staphylococcus aureus JCSC 6765 expressing gyrA Ser84Leu, norA T389C and grlA Ser80Phe/Glu84Lys mutants by broth microdilution method; type: functional
Staphylococcus aureus [26] = experiment: Antimicrobial activity against low level levofloxacin and methicillin-resistant Staphylococcus aureus JCSC 6768 expressing gyrA Glu84Lys and grlA Ser80Phe mutants by broth microdilution method; type: functional
Staphylococcus aureus [27] = experiment: Bactericidal activity against methicillin-resistant Staphylococcus aureus at 16 times MIC upto 60 mins by time-kill assay; type: functional, organism-based

SMILES | Activity (Staphylococcus aureus [1]) | Activity (Staphylococcus aureus [3]) | MIC (Staphylococcus aureus [4]) | Activity (Staphylococcus aureus [6]) | MIC (Staphylococcus aureus [7]) | Activity (Staphylococcus aureus [8]) | Activity (Staphylococcus aureus [9]) | Activity (Staphylococcus aureus [10]) | Activity (Staphylococcus aureus [11]) | Activity (Staphylococcus aureus [12]) | Activity (Staphylococcus aureus [13]) | MIC (Staphylococcus aureus [14]) | MIC (Staphylococcus aureus [15]) | Activity (Staphylococcus aureus [16]) | Activity (Staphylococcus aureus [17]) | MIC (Staphylococcus aureus [18]) | MIC (Staphylococcus aureus [21]) | MIC (Staphylococcus aureus [23]) | MIC (Staphylococcus aureus [25]) | MIC (Staphylococcus aureus [26]) | also measured
COc1c(N2CCNC(C)C2)c(F)cc2c(=O)c(C(=O)O)cn(C3CC3)c12 (stereo not given) [GATIFLOXACIN] | Active | Active | 128 µg/mL (≈ 341 µM) | Active | 0.125 µg/mL (≈ 0.333 µM) | Active | Active | Active | Active | Active | Active | 2 µg/mL (≈ 5.33 µM) | 0.125 µg/mL (≈ 0.333 µM) | Active | Active | 0.125 µg/mL (≈ 0.333 µM) | 32 µg/mL (≈ 85.2 µM) | 2 µg/mL (≈ 5.33 µM) | 16 µg/mL (≈ 42.6 µM) | 2 µg/mL (≈ 5.33 µM) | Activity (Staphylococcus aureus [2]): Active; Activity (Staphylococcus aureus [5]): Active; Activity (Staphylococcus aureus [19]): inactive; Activity (Staphylococcus aureus [20]): Active; Activity (Staphylococcus aureus [22]): inactive; Activity (Staphylococcus aureus [24]): Active; Activity (Staphylococcus aureus [27]): inactive
C[C@H]1COc2c(N3CCN(C)CC3)c(F)cc3c(=O)c(C(=O)O)cn1c23.C[C@H]1COc2c(N3CCN(C)CC3)c(F)cc3c(=O)c(C(=O)O)cn1c23.O [LEVOFLOXACIN] | Active | Active | 512 µg/mL | Active | 0.5 µg/mL | Active | Active | Active | Active | Active | Active | 8 µg/mL | 0.25 µg/mL | Active | Active | 0.25 µg/mL | 256 µg/mL | 8 µg/mL | 64 µg/mL | 4 µg/mL | Activity (Staphylococcus aureus [19]): inactive; Activity (Staphylococcus aureus [22]): inactive; Activity (Staphylococcus aureus [24]): Active; Activity (Staphylococcus aureus [27]): inactive
Cc1onc(-c2ccccc2)c1C(=O)N[C@@H]1C(=O)N2[C@@H]1SC(C)(C)[C@@H]2C(=O)O [OXACILLIN] |  |  | 512 µg/mL (≈ 1280 µM) |  | 512 µg/mL (≈ 1280 µM) |  |  |  |  |  |  | 256 µg/mL (≈ 638 µM) | 256 µg/mL (≈ 638 µM) |  |  | 128 µg/mL (≈ 319 µM) | 512 µg/mL (≈ 1280 µM) | 512 µg/mL (≈ 1280 µM) | 256 µg/mL (≈ 638 µM) | 256 µg/mL (≈ 638 µM) | 

Source: ChEMBL document CHEMBL1275457, “Postantibiotic effects and bactericidal activities of levofloxacin and gatifloxacin at concentrations simulating those of topical ophthalmic administration against fluoroquinolone-resistant and fluoroquinolone-sensitive methicillin-resistant Staphylococcus aureus strains” (2008)
